Like-named read-outs stand apart in the source and are kept apart here.
Columns and labels:
rats [1] = system: rats
rhesus monkeys [2] = details: 5 day treatment, 3.0 mg/kg i.v., two of three monkeys
[3] = system: 64 radioligand/enzyme assays; details: 10 μM; e.g. α1 adrenergic, α2 adrenergic, histamine H1, sodium channel site 2, CCK1, NK2
monkeys [4] = details: monkeys trained to discriminate cocaine, preliminary unpublished results
rats [5] = details: unpublished results
monkeys [6] = details: 5 day treatment; cited from earlier work
monkeys [7] = details: cited from earlier work
D3R [8] = details: primates, PET, oral 1.0 mg/kg; cited from earlier work
cocaine abusers = details: cited from earlier work
D3R [9] = details: cited from earlier work
rats [10] = details: cited from earlier work
rats [11] = details: cited from earlier work; remark: listed apart in the source
rhesus monkeys [12] = details: cited from earlier work
humans = details: cited from earlier work
squirrel monkeys = details: cited from earlier work
rats [13] = details: cited from earlier work; remark: listed apart in the source
rhesus monkeys [14] = details: cited from earlier work; remark: listed apart in the source
abstinent smokers = details: cited from earlier work
[15] = system: overweight and obese subjects; details: cited from earlier work
tobacco smokers = details: smokers after overnight abstinence; cited from earlier work
[16] = history of long access (6 h per day, 6 days per week)
[17] = history of short access (1 h per day, 3 days per week)

O=C(NCC[C@@H](O)CN1CCN(c2cccc(Cl)c2Cl)CC1)c1cc2ccccc2[nH]1 [(R)-1]
Dunnett's test p vs vehicle, PR break points normalized to baseline (rats [1]; 3.0 mg/kg i.p.): < 0.001
Dunnett's test p vs vehicle, number of METH injections (rats [1]; 3.0 mg/kg i.p.): < 0.01
Dunnett's test p vs vehicle, PR break points normalized to baseline (rats [1]; 10 mg/kg i.p.): < 0.001
Dunnett's test p vs vehicle, number of METH injections (rats [1]; 10 mg/kg i.p.): < 0.01

O=C(NCCC(O)CN1CCN(c2cccc(Cl)c2Cl)CC1)c1cc2ccccc2[nH]1 (racemic) [(±)-1, N-(4-(4-(2,3-dichlorophenyl)piperazin-1-yl)-3-hydroxybutyl)-1H-indole-2-carboxamide]
effect on METH choice curve (rhesus monkeys [2]): produced a leftward shift of the METH choice curve
hits in the receptor panel [3]: only “hit” a few
substitution for cocaine (monkeys [4]): does not substitute for cocaine
Dunnett's test p vs vehicle, PR break points normalized to baseline (rats [1]; 3.0 mg/kg i.p.): > 0.05
Dunnett's test p vs vehicle, number of METH injections (rats [1]; 3.0 mg/kg i.p.): > 0.05
Dunnett's test p vs vehicle, PR break points normalized to baseline (rats [1]; 10 mg/kg i.p.): < 0.001
Dunnett's test p vs vehicle, number of METH injections (rats [1]; 10 mg/kg i.p.): < 0.001
effect on PR break points normalized to baseline responding (rats [1]; i.p., 3.0 and 10 mg/kg): significantly reduced PR break points
effect on number of METH injections (PR) (rats [1]; i.p., 3.0 and 10 mg/kg): significantly and dose-dependently reduced METH injections
effect on 7-OH DPAT-induced yawning (rats [5]): attenuated 7-OH DPAT-induced yawning in rats
cocaine choice, group data, posthoc comparison (cynomolgus monkeys; 0.01 mg/kg cocaine available as the alternative to food): significant increase in cocaine choice
effect on cocaine choice curve (cynomolgus monkeys; seven cynomolgus monkeys, acute i.v., in all but one monkey): either shifted the cocaine choice curve to the left (4 subjects) or had no effect (2 subjects)

O=C(NCC[C@H](O)CN1CCN(c2cccc(Cl)c2Cl)CC1)c1cc2ccccc2[nH]1 [(S)-1]
Dunnett's test p vs vehicle, PR break points normalized to baseline (rats [1]; 3.0 mg/kg i.p.): < 0.01
Dunnett's test p vs vehicle, number of METH injections (rats [1]; 3.0 mg/kg i.p.): > 0.05
Dunnett's test p vs vehicle, PR break points normalized to baseline (rats [1]; 10 mg/kg i.p.): < 0.001
Dunnett's test p vs vehicle, number of METH injections (rats [1]; 10 mg/kg i.p.): < 0.001
effect on 7-OH DPAT-induced yawning (rats [5]): attenuated 7-OH DPAT-induced yawning in rats

O=C1CC2(CCCC2)CC(=O)N1CCCCN1CCN(c2ncccn2)CC1 [buspirone]
cocaine choice (monkeys [6]): increased cocaine choice
cocaine-maintained vs food-reinforced behavior (monkeys [7]; monkeys self-administering cocaine): decreased cocaine-maintained behavior to a larger degree than food-reinforced behavior
cocaine self-administration vs food-reinforced responding (monkeys [7]; rhesus monkeys, continuous infusions): decreased cocaine self-administration to a greater degree than food-reinforced responding
D3R occupancy (D3R [8]): < 20%
cocaine use (cocaine abusers; 60 mg): increased cocaine use in women
treatment-emergent adverse events (cocaine abusers): did not include increases in blood pressure

CN(C)C(=O)N[C@H]1CC[C@H](CCN2CCN(c3cccc(Cl)c3Cl)CC2)CC1 [Compound 6, cariprazine]
D3R-preferential (D3R [9]): approximately 10 fold

O=C(NCCCCN1CCN(c2cccc(Cl)c2Cl)CC1)c1ccc2c(c1)Cc1ccccc1-2 [Compound 2, N-(4-(4-(2,3-dichlorophenyl)piperazin-1-yl)butyl)-9H-fluorene-2-carboxamide]
cue- and cocaine-induced reinstatement of cocaine seeking (rats [10]): blocked both cue- and cocaine-induced reinstatement of cocaine seeking
break point, cocaine PR schedule (rats [11]): significantly lowered the break point

CCCN1CCC[C@@H]2Cc3n[nH]cc3C[C@H]21 [quinpirole, reference compound]
yawning (rhesus monkeys [12]; cocaine-naïve rhesus monkeys): induces robust yawning

COc1ccccc1N1CCN(CCCCNC(=O)c2ccc3ccccc3c2)CC1 [Compound 8]
outcome of clinical trials for cocaine abuse (humans): failed in clinical trials for cocaine abuse

O=C(NCCCCN1CCN(c2cccc(Cl)c2Cl)CC1)c1ccc(-c2ccccn2)cc1 [Compound 17, N-(4-(4-(2,3-dichlorophenyl)piperazin-1-yl)butyl)-4-(pyridin-2-yl)benzamide]
cocaine self-administration and cocaine-induced reinstatement (squirrel monkeys): failed to attenuate cocaine self-administration or cocaine-induced reinstatement
PR METH self-administration (rats [13]; [16]): reduced PR METH self-administration
PR METH self-administration (rats [13]; [17]): also reduced PR METH self-administration
yawning (rhesus monkeys [12]; cocaine-naïve rhesus monkeys): failed to do so
yawning (rhesus monkeys [12]; monkeys with a history of cocaine self-administration): induced yawning similar in magnitude to quinpirole
cocaine- and food-maintained responding (rhesus monkeys [14]; monkeys, second-order schedule of reinforcement): decreased both cocaine- and food-maintained responding
cocaine's discriminative stimulus effects (rhesus monkeys [14]; rhesus monkeys): attenuated cocaine’s discriminative stimulus effects

O=C(NC/C=C/CN1CCN(c2cccc(Cl)c2Cl)CC1)c1ccc(-c2ccccn2)cc1 [Compound 3]
PR METH self-administration (rats [13]; [16]): reduced PR METH self-administration
PR METH self-administration (rats [13]; [17]): in contrast to 3

Cc1ncoc1-c1nnc(SCCCN2C[C@@H]3C[C@]3(c3ccc(C(F)(F)F)cc3F)C2)n1C [Compound 7]
attentional bias, Stroop Task (abstinent smokers): partially attenuated an attentional bias
approach bias [15]: reduced approach bias
attentional bias to palatable food cues [15]: reduced
craving (tobacco smokers): transiently alleviated craving

— paper PMC4516313 (Journal of Medicinal Chemistry, 2015)
